# Laboratory results published in publication PMC9558053, “Development of a novel high-throughput screen for the identification of new inhibitors of protein S-acylation” (The Journal of Biological Chemistry, 2022).
# Test system: endogenous calnexin S-acylation in HEK293T cells
# Test: mPEG-click S-acylation of endogenous calnexin in HEK293T cells
# Assay type: cell-based, human
# Details: 25 and 50 μM, 4 h pretreatment + 4 h labeling
# Description: Finally, we tested whether TTZ-1 and TTZ-2 were able to block the S-acylation of endogenous proteins in the absence of zDHHC enzyme overexpression. In order to detect the S-acylation of endogenous proteins, we used mPEG-click, a technique that we developed recently ([49]) that is better suited for the click chemistry–based analysis of S-acylation of endogenously expressed proteins. In this assay, cells are labeled with either palmitate (C16:0), or C16:0-azide, lysed, and then subjected to click chemistry with alkyne-mPEG 5K. The addition of mPEG 5K moieties to S-acylated proteins increases their apparent molecular weight, which can be detected directly by immunoblotting. HEK293T cells were pretreated for 4 h with either TTZ-1 or TTZ-2 at 25 and 50 μM and then labeled with fatty acids for another 4 h in the presence of the compounds. We first assessed the S-acylation of endogenous SNAP23 as it is a close relative of SNAP25 (SNAP25 is not expressed in the non-neuronal HEK293T cell line) ([50], [51]). […]
# Figure 10 Activity of TTZ-1 and TTZ-2 against the S-acylation of endogenous proteins in mammalian cells. […] The data were quantified, and the graphs below each set of membranes show mean ± SEM of normalized S-acylation of either endogenous SNAP23 (A) or endogenous calnexin (B). […]
row,Compound,S-acylation of endogenous calnexin
1,"O=C(Nc1cccc2c1OC(c1nnn[nH]1)CN2)c1ccc(OCCCCc2ccccc2)cc1 (centres unmarked) [TTZ-2, N-(2-(1H-Tetrazol-5-yl)-3,4-dihydro-2H-benzo[b][1,4]oxazin-8-yl)-4-(4-phenylbutoxy)benzamide]",decreased
2,"CCCCCCCOc1ccc(C(=O)Nc2cccc3c2OC(c2nnn[nH]2)CN3)cc1 (centres unmarked) [TTZ-1, N-(2-(1H-Tetrazol-5-yl)-3,4-dihydro-2H-benzo[b][1,4]oxazin-8-yl)-4-(heptyloxy)benzamide]",decreased
